Results reported in PubChem BioAssay (NCI).
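Results reflect a 48-hour exposure of cells in 96-well plates to compound at five concentrations. GI50 = concentration required for 50% inhibition of growth. TGI marks complete inhibition of growth.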

Key:
Assay in all cases: NCI anticancer screen, dose series, 48 h
786-0 renal = tested on: 786-0 renal
A549 NSCLC = tested on: A549 NSCLC
ACHN renal = tested on: ACHN renal
CAKI-1 renal = tested on: CAKI-1 renal
CCRF-CEM leukemia = tested on: CCRF-CEM leukemia
COLO 205 colon = tested on: COLO 205 colon
DLD-1 colon = tested on: DLD-1 colon
DMS 114 small cell lung = tested on: DMS 114 small cell lung
EKVX NSCLC = tested on: EKVX NSCLC
HCC-2998 colon = tested on: HCC-2998 colon
HCT-116 colon = tested on: HCT-116 colon
HCT-15 colon = tested on: HCT-15 colon
HL-60(TB) leukemia = tested on: HL-60(TB) leukemia
HOP-18 NSCLC = tested on: HOP-18 NSCLC
HOP-92 NSCLC = tested on: HOP-92 NSCLC
HT29 colon = tested on: HT29 colon
IGROV1 ovarian = tested on: IGROV1 ovarian
K-562 leukemia = tested on: K-562 leukemia
KM12 colon = tested on: KM12 colon
KM20L2 colon = tested on: KM20L2 colon
LOX IMVI melanoma = tested on: LOX IMVI melanoma
LXFL 529 NSCLC = tested on: LXFL 529 NSCLC
M14 melanoma = tested on: M14 melanoma
M19-MEL melanoma = tested on: M19-MEL melanoma
MALME-3M melanoma = tested on: MALME-3M melanoma
MOLT-4 leukemia = tested on: MOLT-4 leukemia
NCI-H226 lung = tested on: NCI-H226 lung
NCI-H23 lung = tested on: NCI-H23 lung
NCI-H460 lung = tested on: NCI-H460 lung
OVCAR-3 ovarian = tested on: OVCAR-3 ovarian
OVCAR-4 ovarian = tested on: OVCAR-4 ovarian
OVCAR-5 ovarian = tested on: OVCAR-5 ovarian
OVCAR-8 ovarian = tested on: OVCAR-8 ovarian
RPMI-8226 leukemia = tested on: RPMI-8226 leukemia
RXF 393 renal = tested on: RXF 393 renal
SF-268 CNS = tested on: SF-268 CNS
SF-295 CNS = tested on: SF-295 CNS
SF-539 CNS = tested on: SF-539 CNS
SK-MEL-2 melanoma = tested on: SK-MEL-2 melanoma
SK-MEL-28 melanoma = tested on: SK-MEL-28 melanoma
SK-MEL-5 melanoma = tested on: SK-MEL-5 melanoma
SK-OV-3 ovarian = tested on: SK-OV-3 ovarian
SN12C renal = tested on: SN12C renal
SNB-19 CNS = tested on: SNB-19 CNS
SR leukemia = tested on: SR leukemia
SW-620 colon = tested on: SW-620 colon
TK-10 renal = tested on: TK-10 renal
U251 CNS = tested on: U251 CNS
UACC-257 melanoma = tested on: UACC-257 melanoma
UACC-62 melanoma = tested on: UACC-62 melanoma
UO-31 renal = tested on: UO-31 renal

O=C([O-])CCc1ccccc1.O=C([O-])CCc1ccccc1.O=C([O-])CCc1ccccc1.O=C([O-])CCc1ccccc1.[Mo+2].[Mo+2]
GI50 (786-0 renal): > 100 µM
TGI (786-0 renal): > 100 µM
GI50 (A549 NSCLC): > 100 µM
TGI (A549 NSCLC): > 100 µM
GI50 (ACHN renal): > 100 µM
TGI (ACHN renal): > 100 µM
GI50 (CAKI-1 renal): > 100 µM
TGI (CAKI-1 renal): > 100 µM
GI50 (CCRF-CEM leukemia): > 100 µM
TGI (CCRF-CEM leukemia): > 100 µM
GI50 (COLO 205 colon): > 100 µM
TGI (COLO 205 colon): > 100 µM
GI50 (DLD-1 colon): > 100 µM
TGI (DLD-1 colon): > 100 µM
GI50 (DMS 114 small cell lung): > 100 µM
TGI (DMS 114 small cell lung): > 100 µM
GI50 (EKVX NSCLC): > 100 µM
TGI (EKVX NSCLC): > 100 µM
GI50 (HCC-2998 colon): > 100 µM
TGI (HCC-2998 colon): > 100 µM
GI50 (HCT-116 colon): > 100 µM
TGI (HCT-116 colon): > 100 µM
GI50 (HCT-15 colon): > 100 µM
TGI (HCT-15 colon): > 100 µM
GI50 (HL-60(TB) leukemia): > 100 µM
TGI (HL-60(TB) leukemia): > 100 µM
GI50 (HOP-18 NSCLC): > 100 µM
TGI (HOP-18 NSCLC): > 100 µM
GI50 (HOP-92 NSCLC): 43.4 µM
TGI (HOP-92 NSCLC): > 100 µM
GI50 (HT29 colon): > 100 µM
TGI (HT29 colon): > 100 µM
GI50 (IGROV1 ovarian): > 100 µM
TGI (IGROV1 ovarian): > 100 µM
GI50 (K-562 leukemia): > 100 µM
TGI (K-562 leukemia): > 100 µM
GI50 (KM12 colon): > 100 µM
TGI (KM12 colon): > 100 µM
GI50 (KM20L2 colon): > 100 µM
TGI (KM20L2 colon): > 100 µM
GI50 (LOX IMVI melanoma): > 100 µM
TGI (LOX IMVI melanoma): > 100 µM
GI50 (LXFL 529 NSCLC): > 100 µM
TGI (LXFL 529 NSCLC): > 100 µM
GI50 (M14 melanoma): > 100 µM
TGI (M14 melanoma): > 100 µM
GI50 (M19-MEL melanoma): > 100 µM
TGI (M19-MEL melanoma): > 100 µM
GI50 (MALME-3M melanoma): > 100 µM
TGI (MALME-3M melanoma): > 100 µM
GI50 (MOLT-4 leukemia): > 100 µM
TGI (MOLT-4 leukemia): > 100 µM
GI50 (NCI-H226 lung): > 100 µM
TGI (NCI-H226 lung): > 100 µM
GI50 (NCI-H23 lung): > 100 µM
TGI (NCI-H23 lung): > 100 µM
GI50 (NCI-H460 lung): > 100 µM
TGI (NCI-H460 lung): > 100 µM
GI50 (OVCAR-3 ovarian): > 100 µM
TGI (OVCAR-3 ovarian): > 100 µM
GI50 (OVCAR-4 ovarian): > 100 µM
TGI (OVCAR-4 ovarian): > 100 µM
GI50 (OVCAR-5 ovarian): > 100 µM
TGI (OVCAR-5 ovarian): > 100 µM
GI50 (OVCAR-8 ovarian): > 100 µM
TGI (OVCAR-8 ovarian): > 100 µM
GI50 (RPMI-8226 leukemia): > 100 µM
TGI (RPMI-8226 leukemia): > 100 µM
GI50 (RXF 393 renal): > 100 µM
TGI (RXF 393 renal): > 100 µM
GI50 (SF-268 CNS): > 100 µM
TGI (SF-268 CNS): > 100 µM
GI50 (SF-295 CNS): > 100 µM
TGI (SF-295 CNS): > 100 µM
GI50 (SF-539 CNS): > 100 µM
TGI (SF-539 CNS): > 100 µM
GI50 (SK-MEL-2 melanoma): > 100 µM
TGI (SK-MEL-2 melanoma): > 100 µM
GI50 (SK-MEL-28 melanoma): > 100 µM
TGI (SK-MEL-28 melanoma): > 100 µM
GI50 (SK-MEL-5 melanoma): > 100 µM
TGI (SK-MEL-5 melanoma): > 100 µM
GI50 (SK-OV-3 ovarian): > 100 µM
TGI (SK-OV-3 ovarian): > 100 µM
GI50 (SN12C renal): > 100 µM
TGI (SN12C renal): > 100 µM
GI50 (SNB-19 CNS): > 100 µM
TGI (SNB-19 CNS): > 100 µM
GI50 (SR leukemia): > 100 µM
TGI (SR leukemia): > 100 µM
GI50 (SW-620 colon): > 100 µM
TGI (SW-620 colon): > 100 µM
GI50 (TK-10 renal): > 100 µM
TGI (TK-10 renal): > 100 µM
GI50 (U251 CNS): > 100 µM
TGI (U251 CNS): > 100 µM
GI50 (UACC-257 melanoma): > 100 µM
TGI (UACC-257 melanoma): > 100 µM
GI50 (UACC-62 melanoma): > 100 µM
TGI (UACC-62 melanoma): > 100 µM
GI50 (UO-31 renal): > 100 µM
TGI (UO-31 renal): > 100 µM
